Data set [1] concerns the target T1, 3CL protease of SARS-coronavirus 2 (Severe acute respiratory syndrome coronavirus 2, UniProt P0DTD1).
T1 construct: purchased BPS 79955-1
Kind of data set: 3CL protease fluorescent assay based on commercial kit (BPS cat. 79955-1). Type of data set: biochemical. To be noted: for Activity (RFU/minute): mean ± standard deviation, 0 μM: 743.7 ± 20.6. How it is done: Inhibition of the activity of 3CL protease of SARS-coronavirus 2 (the coronavirus associated with COVID-19) was determined by an assay based on commercial kit (BPS cat. 79955-1). […] The reaction was initiated by addition of 50 μl of 50 μM kit substrate (25 μM final concentration), and then fluorescence was monitored (at 340 nm excitation wavelength, 510 nm emission wavelength) using a CLARIOstar® Plus plate reader (BMG Labtech). The 3CL protease activity was quantified as relative fluorescent units (RFU) per minute.

For data set [2] the following is noted: based on literature reports; cited from earlier work.

Each structure is given as a SMILES string.

On to `CC(C)=CCC(O)C1=CC(=O)c2c(O)ccc(O)c2C1=O` (stereo not drawn) [Shikonin, 5,8-dihydroxy-2-(1-hydroxy-4-methylpent-3-en-1-yl)naphthalene-1,4-dione], for which the “Activity (RFU/minute)” value was determined as 653.8 ± 28.1 RFU/minute in data set [1] (0.1 μM shikonin), 680.1 ± 34.3 RFU/minute in data set [1] (1 μM shikonin), 425.0 ± 7.8 RFU/minute in data set [1] (10 μM shikonin) and 2.9 ± 18.4 RFU/minute in data set [1] (100 μM shikonin). In addition, the “inhibition of 3CL protease” value in data set [1] (100 μM shikonin) is given as “almost complete inhibition”. Also, the “dosages at which toxicity is not expected” value in data set [2] was “less than 8 grams per day”.

(Values after US12138232B2, “Compounds for treating coronavirus infection” (priority 2020, dated 2024).)
